Series [1] concerns Candida albicans. In words: Antifungal activity against Candida albicans C697 infected in normal mouse assessed as reduction of fungal burden in kidney at 5 mg/kg, ip. Also noted: dose 5 mg/kg. The class given is functional, organism-based.
In series [2] the test system is Candida albicans. In words: Antifungal activity against Candida albicans C697 infected in normal mouse assessed as increase of host survival at 5 mg/kg, ip measured for 4 days. Format: functional. Particulars: 96 h, route intraperitoneal.
The test system of series [3] is Candida albicans. In words: Antifungal activity against Candida albicans C697 infected in immune compromised mouse assessed as reduction of fungal burden in kidney at 5 mg/kg, ip. Format: functional, organism-based. Also noted: dose 5 mg/kg.
The test system of series [4] is Candida albicans. In words: Antifungal activity against Candida albicans C697 infected in immune compromised mouse assessed as increase of host survival at 5 mg/kg, ip measured for 4 days. Format: functional. To be noted: 96 h, route intraperitoneal.
Another series concerns the target T1, Beta-1,3-glucan synthase (Candida albicans, UniProt O13383).
T1 sequence (O13383 whole entry): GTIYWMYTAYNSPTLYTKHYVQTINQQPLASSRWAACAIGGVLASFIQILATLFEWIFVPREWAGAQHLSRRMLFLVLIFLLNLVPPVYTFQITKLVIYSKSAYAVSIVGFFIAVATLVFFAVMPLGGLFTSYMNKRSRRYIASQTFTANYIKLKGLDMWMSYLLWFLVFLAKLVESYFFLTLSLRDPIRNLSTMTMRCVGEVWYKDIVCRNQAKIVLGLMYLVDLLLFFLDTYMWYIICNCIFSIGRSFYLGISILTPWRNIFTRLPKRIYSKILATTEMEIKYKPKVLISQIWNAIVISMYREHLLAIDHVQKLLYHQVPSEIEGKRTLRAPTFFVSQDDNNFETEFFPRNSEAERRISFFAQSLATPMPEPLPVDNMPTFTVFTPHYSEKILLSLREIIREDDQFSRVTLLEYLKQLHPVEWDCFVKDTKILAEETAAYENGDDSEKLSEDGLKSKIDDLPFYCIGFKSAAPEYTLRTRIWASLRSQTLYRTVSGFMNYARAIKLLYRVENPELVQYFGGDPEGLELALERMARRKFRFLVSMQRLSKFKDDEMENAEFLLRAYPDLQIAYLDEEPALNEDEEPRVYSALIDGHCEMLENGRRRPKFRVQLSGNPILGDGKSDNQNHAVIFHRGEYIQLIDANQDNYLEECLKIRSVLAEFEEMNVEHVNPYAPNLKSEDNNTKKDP
The series can be described thus: Inhibition of 1,3-beta-D-glucan synthase in Candida albicans BWP17 membranes. Format: cell membranes.

Another series deals with Nakaseomyces glabratus. The series can be described thus: Antifungal activity against Candida glabrata C624 by broth dilution method. Format: functional. Particulars: read-out: MIC100. On the technique in general: Dilution methods test growth across graded concentrations, often in twofold steps.
Another series has as its system Rattus norvegicus. In words: (§1) AUC (0 to 6 hrs) in rat at 10 mg/kg, po. Format: ADME, organism-based, Plasma. Also noted: time < 6 hr, dose 10 mg/kg, route oral. Particulars: in vivo, 6 h, BLD = below limit of detection.
Series [5] relates to Candida albicans. In words: Antifungal activity against Candida albicans C693 by broth dilution method. Format: functional. To be noted: read-out: MIC100.
For series [6], the system named is Candida albicans. The series can be described thus: Antifungal activity against Candida albicans C697 infected in normal mouse assessed as reduction of fungal burden in kidney at 100 mg/kg, ip. Format: functional, organism-based. Also noted: dose 100 mg/kg.
The subject of series [7] is Aspergillus fumigatus. In words: Induction of morphological changes in Aspergillus fumigatus ND158 assessed as induction of truncated and highly branched hyphae. The class given is functional, organism-based.
In series [8] the test system is Candida albicans. In words: Antifungal activity against Candida albicans C697 infected in immune compromised mouse assessed as reduction of fungal burden in kidney at 100 mg/kg, ip. Format: functional, organism-based. Also noted: dose 100 mg/kg.
Series [9] is described as follows: Cmax in rat at 10 mg/kg, po. The class given is ADME, organism-based. Particulars: in vivo. Further details: dose 10 mg/kg, route oral.
Series [10] can be described thus: as §1. Format: ADME, organism-based, Plasma. Also noted: time < 6 hr, dose 10 mg/kg, route oral. To be noted: plasma.
In series [11] the test system is Aspergillus fumigatus. The series can be described thus: Antifungal activity against Aspergillus fumigatus ND158 by broth dilution method. The class given is functional. To be noted: read-out: MEC.
Series [12] has as its system Candida albicans. In words: Antifungal activity against Candida albicans C697 infected in normal mouse assessed as increase of host survival at 100 mg/kg, ip measured for 4 days. Format: functional. Particulars: 96 h, route intraperitoneal.
Series [13] has as its system Candida albicans. The series can be described thus: Antifungal activity against Candida albicans C697 infected in immune compromised mouse assessed as increase of host survival at 100 mg/kg, ip measured for 4 days. The class given is functional. Particulars: 96 h, route intraperitoneal.

≈ marks a conversion by molar mass, not a printed value. Calls of active or inactive are those of the source. The calls are words filed in the database; no cut-off is given here.

Regarding `CC[C@H](C)C[C@H](C)CCCCCCCCC(=O)N[C@H]1C[C@@H](O)[C@@H](NCCN)NC(=O)[C@@H]2[C@@H](O)CCN2C(=O)[C@H]([C@H](O)CCN)NC(=O)[C@H]([C@H](O)[C@@H](O)c2ccc(O)cc2)NC(=O)[C@@H]2C[C@@H](O)CN2C(=O)[C@H]([C@@H](C)O)NC1=O` [CASPOFUNGIN], the outcome in the series on Candida albicans [1] and in the series on Candida albicans [3] was Active. Also, the survival at 5 mg/kg in the series with Candida albicans [2] and with Candida albicans [4] was 100% each time.
In the case of `O=c1c(OC2CCCC2)c(N2CCN(S(=O)(=O)Cc3cccc(O)c3)CC2)cnn1-c1cc(F)cc(F)c1`, on Beta-1,3-glucan synthase, the IC50 was 91.5 nM. Also, the MIC is 0.26 µg/mL (≈ 0.476 µM) with Nakaseomyces glabratus and 2.1 µg/mL (≈ 3.84 µM) in the series with Candida albicans [5]. For the same compound, the AUC result in the series on Rattus norvegicus was “BLD”.
Turning to `Cc1cc(CS(=O)(=O)N2CCN(c3cnn(-c4cccc(Cl)c4)c(=O)c3OCC3(C)CC3)CC2)ccc1N` [listing 1 of 3 here], the result with Candida albicans [6], in the series on Aspergillus fumigatus [7] and with Candida albicans [8] was Active.
The compound `CC1(COc2c(N3CCN(S(=O)(=O)Cc4ccc(N)c(Cl)c4)CC3)cnn(-c3cc(F)cc(F)c3)c2=O)CC1` showed a half-maximal inhibitory concentration (IC50) against Beta-1,3-glucan synthase of 69 nM. The MIC in the series on Nakaseomyces glabratus is below 0.02 µg/mL; in the series with Candida albicans [5], 0.13 µg/mL (≈ 0.224 µM). In series [9], this compound had a Cmax of 330 ng/mL. In [10], this compound registered an AUC(0-t) at 6 h of 1100 ng·h/mL. In the series with Aspergillus fumigatus [11], the minimal effective concentration is 0.52 µg/mL.
`CC1(COc2c(N3CCN(S(=O)(=O)Cc4ccc(N)nc4)CC3)cnn(-c3cccc(Cl)c3)c2=O)CC1` gave a half-maximal inhibitory concentration (IC50) on Beta-1,3-glucan synthase of 91.7 nM. The results for the MIC in the series on Nakaseomyces glabratus and in the series on Candida albicans [5] were 0.06 µg/mL (≈ 0.11 µM) and 2.08 µg/mL (≈ 3.82 µM), respectively. This compound gave a Cmax in [9] of 1000 ng/mL. In addition, the AUC(0-t) at 6 h in series [10] was 3100 ng·h/mL. For the same compound, in the series on Aspergillus fumigatus [11], the minimal effective concentration stood at 8.4 µg/mL.
For `Cc1cc(CS(=O)(=O)N2CCN(c3cnn(-c4cccc(Cl)c4)c(=O)c3OCC3(C)CC3)CC2)ccc1N` [listing 2 of 3 here], the survival at 100 mg/kg with Candida albicans [12] and in the series on Candida albicans [13] was 100% each time.
As to `Cc1cc(CS(=O)(=O)N2CCN(c3cnn(-c4cccc(Cl)c4)c(=O)c3OCC3(C)CC3)CC2)ccc1N` [listing 3 of 3 here], on Beta-1,3-glucan synthase, the IC50 is 143 nM. In addition, the MIC was determined as 0.13 µg/mL (≈ 0.233 µM) with Nakaseomyces glabratus and 1.04 µg/mL (≈ 1.86 µM) with Candida albicans [5]. In series [9], this compound showed a Cmax of 3000 ng/mL. In addition, the AUC(0-t) at 6 h in series [10] was 15000 ng·h/mL. Besides, the minimal effective concentration with Aspergillus fumigatus [11] came to 2.08 µg/mL.
As to `CC1(COc2c(N3CCN(S(=O)(=O)Cc4cccc(N)c4)CC3)cnn(-c3cccc(Cl)c3)c2=O)CC1`, on Beta-1,3-glucan synthase, the IC50 is 73.5 nM. The results for the MIC in the series on Nakaseomyces glabratus and in the series with Candida albicans [5] were 0.13 µg/mL (≈ 0.239 µM) and 0.52 µg/mL (≈ 0.956 µM), respectively. The same compound came in with a Cmax in [9] of 1400 ng/mL. This compound also displayed an AUC(0-t) at 6 h in series [10] of 5700 ng·h/mL. In addition, the minimal effective concentration in the series on Aspergillus fumigatus [11] is 1.04 µg/mL.

Broadly, the IC50 is the midpoint of a concentration-inhibition curve. Low values mean inhibition by little substance, high ones a need for much substance. What is called Cmax is the highest concentration seen after dosing. As a reminder, the AUC(0-t) is exposure summed from dosing to a finite time, without extrapolation to infinity. The low end stands for low exposure, the high end for high exposure.

The values above are taken from ChEMBL document CHEMBL2057100, “The optimization of pyridazinone series of glucan synthase inhibitors” (Bioorg Med Chem Lett, 2012).
